Measurements reported in US9226913B2, “Methods of treating cancer using a combination of an immunomodulatory compound and an artemisinin or a derivative thereof” (Celgene Corporation, priority 2010, dated 2016).
Each block holds one compound with its values, some of them ahead of it.

How the values were obtained:
PANC1 cells = assay: MTT proliferation assay, 72 hr (Example 6.1); assay type: cell-based, human; details: for IC50: Homo sapiens, PANC-1, PANC1 (pancreas), 72 hours treatment, MTT, mean ± SD of at least 3 experiments
Procedure: (§1) The human cancer cell lines; MCF7 (breast), HCT116 and SW480 (colon) (Cancer Research UK, London, UK), KM and MJT3 (melanoma) (in house), PANC1 and MIAPaCa (pancreas) (European Collection of Cell Cultures, Salisbury, UK) were grown in either DMEM (Sigma) or RPMI (Sigma) media supplemented with 10% foetal bovine serum, 2 mM L-glutamine, 1% penicillin/streptomycin.
To study the effect of ATM and ART on cell growth, cells growing exponentially were added to 96-well plates at a density of 3×10^4/well. […] Cell number/proliferation was measured at 72 hr using a standard methylthiazoletetrazolium (MTT)-based assay without modifications. Briefly, MTT (Sigma) was added to each well to give a working concentration of 0.4 mg/ml, and plates returned to the incubator for a further 1 hr. After this time, the medium was aspirated off, 200 μL of DMSO was then added to each well, and plates agitated gently for 5 min before measuring optical density at 540 nm in each well.

[1] = system: HCT116, SW480 and MCF7 cells; assay: Combination with OXP at fixed ratio, nature of interaction (Example 6.1); assay type: cell-based, human; details: combined with OXP, median effect analysis
Source text: This combination studies followed an approach previously described (Liu et al. 2008, Leuk Lymphoma, 49(9):1800-9).

human cancer cell lines = assay: Trypan blue dye exclusion in parallel to MTT (Example 6.1); assay type: cell-based; details: in parallel to the MTT assay; data not shown
MCF7 cells [2] = assay: Flow cytometric analysis of the cell cycle (Example 6.1); assay type: cell-based, human
Procedure: (§2) Cells were cultured with equi-active concentrations (˜IC25) of ART or ATM for 72 hrs, before fixing in 70% (v/v) ethanol in PBS. Following an incubation period of at least 30 mins, cells were washed and re-suspended in a DNA staining solution (1 mg/mL propidium iodide and 1 ng/mL RNAse A (both Sigma). Acquisition of data was performed within 1 h using a Becton Dickinson FACSCalibur (BD Biosciences), and gating was employed to remove doublet artefacts and to discriminate cells from debris. Ten thousand cells were analysed, and the percentages of cells in G1, S and G2/M phases were determined using the cell cycle analysis program WinMDI CellQuest v2.9 (http://facs.scripps.edu/software.html).

SW480 cells [3] = assay: as above; assay type: cell-based, human; details: SW480, equi-active (~IC25) concentration, 72 hrs
Procedure: as §2

HCT116 cells [4] = assay: as above; assay type: cell-based, human
Procedure: as §2

MiaPaCa3 cells = assay: MTT proliferation assay, 72 hr (Example 6.1); assay type: cell-based; details: Homo sapiens, MiaPaCa3 (pancreas), 72 hours treatment, mean ± SD of at least 3 experiments
Procedure: as §1
(§3) To study the effect of ATM and ART on cell growth, cells growing exponentially were added to 96-well plates at a density of 3×10^4/well. Drugs (0.1-100 μM) were then added to the wells, ensuring an equal volume of 200 μL across the plate. Cell number/proliferation was measured at 72 hr using a standard methylthiazoletetrazolium (MTT)-based assay without modifications. Briefly, MTT (Sigma) was added to each well to give a working concentration of 0.4 mg/ml, and plates returned to the incubator for a further 1 hr. After this time, the medium was aspirated off, 200 μL of DMSO was then added to each well, and plates agitated gently for 5 min before measuring optical density at 540 nm in each well.

KM cells = assay: MTT proliferation assay, 72 hr (Example 6.1); assay type: cell-based; details: Homo sapiens, KM (melanoma), 72 hours treatment, mean ± SD of at least 3 experiments
Procedure: as §1, §3

[5] = Nagelschmitz et al., 2008; cited from earlier work
Plasmodium falciparum = details: Haynes 2006; Vivas 2007; Ramharter 2006; cited from earlier work
MCF7 cells [6] = assay: MTT proliferation assay, 72 hr (Example 6.1); assay type: cell-based, human; details: for IC50: MCF7 (breast), 72 hours treatment, MTT, mean ± SD of at least 3 experiments
Procedure: as §1, §3

MJT3 cells = assay: MTT proliferation assay, 72 hr (Example 6.1); assay type: cell-based, human; details: for IC50: Homo sapiens, MJT3 (melanoma), 72 hours treatment, MTT, mean ± SD of at least 3 experiments
Procedure: as §1, §3

SW480 cells [7] = assay: MTT proliferation assay, 72 hr (Example 6.1); assay type: cell-based, human; details: for IC50: Homo sapiens, SW480 (colon), 72 hours treatment, MTT, mean ± SD of at least 3 experiments
Procedure: as §1, §3

HCT116 cells [8] = assay: MTT proliferation assay, 72 hr (Example 6.1); assay type: cell-based, human; details: for IC50: Homo sapiens, HCT-116, HCT116 (colon), 72 hours treatment, MTT, mean ± SD of at least 3 experiments
Procedure: as §1, §3

pRb = assay: Immunoblotting analysis (Example 6.1); assay type: cell-based, human; details: in each cell line (HCT116, SW480, MCF7)
Procedure: (§4) Cells were harvested and total cellular protein was solubilised in lysis buffer (New England Biolabs, Hitchin, UK) and resolved by Tris-glycine electrophoresis using a 4-12% bis-tris gradient-gel according to the method of Laemmli (Laemmli UK. 1970. Nature, 227(5259):680-5). Following transfer of proteins to nitrocellulose membranes (0.45 μm), blocking was performed in 5% (w/v) non-fat milk in TTBS [0.5% (v/v) Tween-20 in TBS (50 mM Tris, 150 mM NaCl, pH 8.0)]. Primary antibody probing was performed with anti-p53, anti-p21, anti-Bax, anti-CDK4, anti-cyclin D1 or anti-pRb. All primary antibodies were obtained from New England Biolabs (Hitchin, UK) and used at a dilution of 1:1,000, unless stated otherwise. Anti-GAPDH was used as a loading control (1:2,000—New England). Following five washing steps in TTBS, horseradish peroxidase-conjugated anti-species IgG1 was used as the secondary antibody (Amersham Biosciences Ltd., Little Chalfont, UK). Bands were visualised by the ECL-plus detection system (Amersham).

cyclin D1 and CDK 4 = assay: Immunoblotting analysis (Example 6.1); assay type: cell-based, human; details: whole cell lysates, equi-active (~IC25) concentrations, 72 hrs
Procedure: as §4

Bax = assay: Immunoblotting analysis (Example 6.1); assay type: cell-based, human; details: immunoblotting of treated cultures
Procedure: as §4

p21^waf1cip1 = assay: Immunoblotting analysis (Example 6.1); assay type: cell-based, human; details: whole cell lysates, ~IC25, 72 hrs
Procedure: as §4

MCF7 cells [9] = assay: MTT proliferation assay, 72 hr (Example 6.2); assay type: cell-based, human; details: Homo sapiens, MCF7, 72 h, mean ± SD of at least five experiments
Procedure: (§5) The human cancer cell lines; MCF7 (breast), HCT116 (colon) and A549 (lung) (Cancer Research UK, London, UK), were grown in either DMEM (Sigma) or RPMI (Sigma) media supplemented with 10% foetal bovine serum, 2 mM L-glutamine, 1% penicillin/streptomycin.
as §3, with “each agent” for “ATM and ART”, “μl” for “μL”, “number” for “number/proliferation”, “modifications as described previously (Gordi et al., 2004, Toxicol. Lett. 147: 99-107).” for “modifications.”

A549 cells = assay: MTT proliferation assay, 72 hr (Example 6.2); assay type: cell-based, human; details: Homo sapiens, A549, 72 h, mean ± SD of at least five experiments
Procedure: as §5
as §3, with “each agent” for “ATM and ART”, “μl” for “μL”, “number” for “number/proliferation”, “modifications as described previously (Gordi et al., 2004, Toxicol. Lett. 147: 99-107).” for “modifications.”

HCT116^norm cells = assay: MTT proliferation assay, 72 hr (Example 6.2); assay type: cell-based, human; details: Homo sapiens, 72 h, MTT, mean ± SD of at least five experiments, read-out: IC50
Procedure: as §5
as §3, with “each agent” for “ATM and ART”, “μl” for “μL”, “number” for “number/proliferation”, “modifications as described previously (Gordi et al., 2004, Toxicol. Lett. 147: 99-107).” for “modifications.”

[10] = system: all the cell lines (A549, HCT116^norm, MCF7); assay: Effect of low LEN concentrations alone on cell numbers and viabilities (Example 6.2); assay type: cell-based, human; details: LEN alone at 0.1 and 1 μM
Procedure: Median-effect analysis of combination requires the extrapolation of an IC50-value. Where this was not possible, the inventors explored the effect of combining drugs by fixing the concentration of GEM or LEN (modulating agent) and testing its ability to influence the activity of ART (drug partner). […] ART was diluted in growth medium and added to the plates in a range of drug concentrations to allow determination of IC50. The effect on these IC50 values of co-culture with a sub-optimal concentration (˜IC20) of GEM or LEN was then tested. Cell numbers at 72 hr were assessed by the MTT assay as previously described. This enabled the assessment of the nature of any drug-drug interaction by comparing the IC50 for ART in the presence and absence of the combinatorial drug partner.
The lack of a dose-response in the cells rendered the primary model of drug-drug interaction ineffectual for combinations of ART with LEN. For this reason the inventors next tested the ability of LEN to sensitise cells to ART. These combinatorial analyses were performed in all the cell lines using a smaller concentration of LEN (0.1 and 1 μM). These concentrations had little effect on cell numbers and viabilities.

- IC50 (PANC1 cells): > 1000 µM
- IC50 (MiaPaCa3 cells): 14 ± 10 µM
- IC50 (MCF7 cells [6]; Homo sapiens, MCF7, 72 h): 0.5 µM
- IC50 less for ATM than its precursor ART (MCF7 cells [6]; MCF7): around 80 fold
- IC50 (MCF7 cells [6]): 0.56 ± 0.17 µM
- IC50 (SW480 cells [7]): 4.5 ± 1.6 µM
- IC50 (HCT116 cells [8]): 9.5 ± 0.9 µM
SMILES: C[C@H]1[C@H](N2CCS(=O)(=O)CC2)O[C@@H]2O[C@@]3(C)CC[C@H]4[C@H](C)CC[C@@H]1[C@@]24OO3 [Artemisone, artemisone]
- impact on cell number (PANC1 cells; p53-mutant, resistant PANC1 cell line): neither drug had an impact
- nature of interaction with OXP [1]: additive interaction
- cell viability (trypan blue dye exclusion) (human cancer cell lines): did not affect cell viability
- apoptotic/sub-G1 phase of the cell cycle (MCF7 cells [2]; MCF7, equi-active (~IC25) concentration, 72 hrs): no increase
- cell cycle effect (MCF7 cells [2]; MCF7, ~IC25, 72 hrs): G1-selective blockade
- cells in G1 (MCF7 cells [2]; MCF7, ~IC25, 72 hrs, untreated 63±4.40%, p=0.015): 83±5.5%
- apoptotic/sub-G1 phase of the cell cycle (SW480 cells [3]): no increase
- apoptotic/sub-G1 phase of the cell cycle (HCT116 cells [4]; HCT116, equi-active (~IC25) concentration, 72 hrs): no increase
- distribution of cells within the G1, S and G2 phases (HCT116 cells [4]; HCT116, ~IC25, 72 hrs): did not alter the distribution
- IC50 (KM cells): 6.4 ± 2.1 µM
- toxicity [5]: almost negligible toxicity
- activity against Plasmodium falciparum compared with other antimalarial drugs (Plasmodium falciparum): significantly more active
- IC50 (MJT3 cells): 30 ± 26 µM
- effect on cell number (MJT3 cells; MJT3 cells, MTT 72 hr): significantly reduced cell number
- susceptibility to ATM relative to ART (SW480 cells [7]; SW480, comparison of IC50): around 30 ×
- susceptibility to ATM relative to ART (HCT116 cells [8]; HCT116, comparison of IC50): around 30 ×
- levels of pRb (pRb): dramatic reduction
- levels of cyclin D1 and its associated CDK 4 (cyclin D1 and CDK 4): significantly reduced
- pro-apoptotic protein Bax (Bax): no increase
- levels of the general CDK inhibitor p21^waf1cip1 (p21^waf1cip1): generally unchanged

- IC50 (PANC1 cells): > 1000 µM
- IC50 (MiaPaCa3 cells): 31 ± 13 µM
- IC50 (MCF7 cells [6]; Homo sapiens, MCF7, 72 h): 44 ± 15 µM
- IC50 (SW480 cells [7]): 156 ± 38 µM
- IC50 (HCT116 cells [8]): 204 ± 88 µM
SMILES: C[C@@H]1CC[C@H]2[C@@H](C)C(=O)O[C@@H]3O[C@@]4(C)CC[C@@H]1[C@]32OO4 [Artemisinin, artemisinin]
- IC50 (KM cells): 101 ± 15 µM
- IC50 (MJT3 cells): > 1000 µM

- IC50 (MCF7 cells [9]): > 100 µM
- IC50 (A549 cells): > 100 µM
- IC50 (HCT116^norm cells): > 100 µM
SMILES: Nc1cccc2c1CN(C1CCC(=O)NC1=O)C2=O (centres unmarked) [Lenalidomide, 1-oxo-2-(2,6-dioxopiperidin-3-yl)-4-aminoisoindoline]
- effect on cell numbers and viabilities [10]: little effect
